# Values quoted from earlier work, collected in PubChem BioAssay AID1259409 (Chemical Carcinogenesis Research Information System (CCRIS), 2018).
# Tested on: rodent chemically induced tumor inhibition, incidence and multiplicity
# Assay: CCRIS tumor inhibitor studies
# Conditions: Dose [Inhibitor]: 0
smiles,measurement,setting,value
S=C=NCCCCc1cccnc1,"tumour outcome (control, treated, inhibition, significance)","Carcinogen: 4-(METHYLNITROSAMINO)-1-(3-PYRIDYL)-1-BUTANONE, 64091-91-4, 0.2 UMOL 1/D FOR 4 D ADMINISTERED PRIOR TO CARCINOGEN TREATMENT (STUDY DURATION: 116 D), Route [Inhibitor]: GAVAGE, Species: MOUSE, Strain/Sex: STRAIN A, Target Tissue: Type of Lesion: LUNG: ADENOMA, Dose [Carcinogen]: 10 UMOL ONCE 2 HR AFTER FINAL DOSE OF INHIBITOR, Promoter: NONE USED","100%, 100%, 0%, not significant"
same,"tumour outcome (control, treated, inhibition, significance)","Carcinogen: 4-(METHYLNITROSAMINO)-1-(3-PYRIDYL)-1-BUTANONE, 64091-91-4, 1 UMOL 1/D FOR 4 D ADMINISTERED PRIOR TO CARCINOGEN TREATMENT (STUDY DURATION: 116 D), Route [Inhibitor]: GAVAGE, Species: MOUSE, Strain/Sex: STRAIN A, Target Tissue: Type of Lesion: LUNG: ADENOMA, Dose [Carcinogen]: 10 UMOL ONCE 2 HR AFTER FINAL DOSE OF INHIBITOR, Promoter: NONE USED","100%, 100%, 0%, not significant"
CC(C)=CCC/C(C)=C/CC/C(C)=C/CCC1(C)CCc2cc(O)ccc2O1 (stereo unspecified),"tumour outcome (control, treated, inhibition, significance)","Carcinogen: 7,12-DIMETHYLBENZ[A]ANTHRACENE, 57-97-6, 3.381 UMOL/G IN DIET FOR DURATION OF STUDY (STUDY DURATION: 18 WK), Route [Inhibitor]: ORAL, Species: RAT, Strain/Sex: SPRAGUE-DAWLEY/FEMALE, Target Tissue: Type of Lesion: MAMMARY GLAND: TUMOR, Dose [Carcinogen]: 50 MG/KG IN SESAME OIL ONCE, Promoter: NONE USED","88%, 72%, 18%, not significant"
same,"tumour outcome (control, treated, inhibition, significance)","Carcinogen: N-METHYL-N-NITROSOUREA, 684-93-5, 3.381 UMOL/G IN DIET FOR DURATION OF STUDY (STUDY DURATION: 19 WK), Route [Inhibitor]: ORAL, Species: RAT, Strain/Sex: SPRAGUE-DAWLEY/FEMALE, Target Tissue: Type of Lesion: MAMMARY GLAND: TUMOR, Dose [Carcinogen]: 30 MG/KG IN ACIDIFIED SALINE ONCE, Promoter: NONE USED","60%, 76%, -27%, not significant"
C=C(CC[C@@H](C(=O)O)[C@H]1[C@H](O)C[C@@]2(C)C3=C(CC[C@]12C)[C@@]1(C)CC[C@H](OC(C)=O)C(C)(C)[C@@H]1CC3)C(C)C,"tumour outcome (control, treated, inhibition, significance)","Carcinogen: 7,12-DIMETHYLBENZ[A]ANTHRACENE, 57-97-6, 0.2 UMOL 2/WK FOR 19 WK BEGINNING 1 WK POST CARCINOGEN DOSE (STUDY DURATION: 20 WK), Route [Inhibitor]: DERMAL, Species: MOUSE, Strain/Sex: ICR, Target Tissue: Type of Lesion: SKIN: PAPILLOMA, Dose [Carcinogen]: 50 UG ONCE, Promoter: 12-O-TETRADECANOYLPHORBOL-13-ACETATE, 16561-29-8","73%, 25%, 66%, not calculated"
same,"tumour outcome (control, treated, inhibition, significance)","Carcinogen: 7,12-DIMETHYLBENZ[A]ANTHRACENE, 57-97-6, 0.2 UMOL IN 100 µL ACETONE:DMSO (9:1) 2/WK FOR 20 WK APPLIED 30 MIN PRIOR TO EACH CARCINOGEN DOSE (STUDY DURATION: 20, Route [Inhibitor]: DERMAL, Species: MOUSE, Strain/Sex: ICR/FEMALE, Target Tissue: Type of Lesion: SKIN: PAPILLOMA, Dose [Carcinogen]: 50 UG IN 100 µL ACETONE ONCE, Promoter: 12-O-TETRADECANOYLPHORBOL-13-ACETATE, 16561-29-8","73%, 27%, 63%, p<0.01"
CC(C)(C)c1cc(CO)cc(C(C)(C)C)c1O,"tumour outcome (control, treated, inhibition, significance)","Carcinogen: 7,12-DIMETHYLBENZ[A]ANTHRACENE, 57-97-6, 200 MG/KG BW/D FOR 3 WK BEGINNING 2 WK PRIOR TO CARCINOGEN DOSE (STUDY DURATION: 24 WK), Route [Inhibitor]: INTRAPERITONEAL, Species: RAT, Strain/Sex: SPRAGUE-DAWLEY/FEMALE, Target Tissue: Type of Lesion: MAMMARY GLAND: TUMOR, Dose [Carcinogen]: 33.3 MG/KG BW IN 0.25 ML CORN OIL ONCE AT 50 D OF AGE, Promoter: NONE USED","91%, 81%, 11%, not significant"
Clc1ccc(COC(Cn2ccnc2)c2ccc(Cl)cc2Cl)c(Cl)c1 (stereo unspecified),"tumour outcome (control, treated, inhibition, significance)","Carcinogen: 7,12-DIMETHYLBENZ[A]ANTHRACENE, 57-97-6, 1000 PPM IN DIET FOR DURATION OF STUDY BEGINNING 1 WK PRIOR TO CARCINOGEN DOSE (STUDY DURATION: 107 D), Route [Inhibitor]: ORAL, Species: RAT, Strain/Sex: SPRAGUE-DAWLEY/FEMALE, Target Tissue: Type of Lesion: MAMMARY GLAND: ADENOCARCINOMA, Dose [Carcinogen]: 12 MG ONCE, Promoter: NONE USED","96%, 84%, 13%, not significant"
same,"tumour outcome (control, treated, inhibition, significance)","Carcinogen: 7,12-DIMETHYLBENZ[A]ANTHRACENE, 57-97-6, 2000 PPM IN DIET FOR DURATION OF STUDY BEGINNING 1 WK PRIOR TO CARCINOGEN DOSE (STUDY DURATION: 107 D), Route [Inhibitor]: ORAL, Species: RAT, Strain/Sex: SPRAGUE-DAWLEY/FEMALE, Target Tissue: Type of Lesion: MAMMARY GLAND: ADENOCARCINOMA, Dose [Carcinogen]: 12 MG ONCE, Promoter: NONE USED","96%, 68%, 29%, not calculated"
COC(=O)c1cc(O)c(O)c(O)c1,"tumour outcome (control, treated, inhibition, significance)","Carcinogen: 7,12-DIMETHYLBENZ[A]ANTHRACENE, 57-97-6, 20 UMOL IN 0.4 ML ACETONE 20 MIN PRIOR TO EACH PROMOTER DOSE (STUDY DURATION: 47 WK), Route [Inhibitor]: DERMAL, Species: MOUSE, Strain/Sex: CF-1/FEMALE, Target Tissue: Type of Lesion: SKIN: CARCINOMA, Dose [Carcinogen]: 100 NMOL IN 0.2 ML ACETONE ONCE","67%, 24%, 64%, not calculated"
same,"tumour outcome (control, treated, inhibition, significance)","Carcinogen: 7,12-DIMETHYLBENZ[A]ANTHRACENE, 57-97-6, 20 UMOL IN 0.4 ML ACETONE 20 MIN PRIOR TO EACH PROMOTER DOSE (STUDY DURATION: 47 WK), Route [Inhibitor]: DERMAL, Species: MOUSE, Strain/Sex: CF-1/FEMALE, Target Tissue: Type of Lesion: SKIN: PAPILLOMA, Dose [Carcinogen]: 100 NMOL IN 0.2 ML ACETONE ONCE","94%, 84%, 11%, p<0.025"
